The values that follow come from patent US20080014149A1, “Methods and Compositions for Imaging and Biomedical Applications” (priority 2004, published 2008).

In series [1] the test system is trypsin Dy only detectable construct (cleavable PEG-peptide-dysprosium, FIG. 24).
The test system of series [2] is T1, PEG-Peptide-DTPA-Dy containing MMP-7 substrate peptide-DTPA.
T1 sequence: RPLALWRSGCG

The nature of series [3]: Imaging DTT with 33 in agarose hydrogels (MRI). The conditions noted are these: vials not filled with buffer. Here is the method: An experimental procedure similar to that outlined in Example 4 is used to image DTT, except that the hydrogels are loaded with compound 33. The scintillation vials which contain the gels are not filled with buffer. This ensured that the cleaved dysprosium remains in the gel and that changes in T2 and signal intensity are due to changes in the rotational correlation time of dysprosium. The DTT is directly added to hydrogels as a concentrated solution. The gels are analyzed in a manner similar to Example 4. The control for this experiment is agarose hydrogels that just contain DTT. […] Problems with synthesis of 33 due to its high polydispersity may result from the free radical polymerization used to generate 28. This problem can be solved by using atom transfer radical polymerization (ATRP) to synthesize 28, using a protected methacrylic acid monomer and an (ATRP) initiator with a functional handle.

Series [4] is described as follows: Water exchange rate of dysprosium chelate. It counts as physicochemical. The text has this:
This is a derivative form of DTPA. The chelator molecule of this example is considered a modification of the detectable detectable agent, wherein the chelator molecule has substitutions. The R2 of dysprosium chelates is inversely proportional to the water exchange rate, particularly for macromolecular dysprosium chelates at high field strengths (Vander 2002 and Caravan 2001) The dysprosium chelate detectable construct remainder in 25 has a greater R2 than the dysprosium chelate detectable construct remainder in 19b and also generates a larger change in tissue T2 after cleavage and diffusion away from the polymeric gadolinium detectable construct remainder. The R1 and R2 of 25 is determined using a 600 MHz NMR machine as described in Example 2.

A short description of series [5]: Imaging DTT with 19b and 25 in agarose gels (MRI). The following applies: 0.5 mM in 2% agarose hydrogels, 50 mM DTT, vials filled with PBS. Here is the method: The T2/T1 quenching detectable constructs 19b and 25 are loaded into 2% agarose hydrogels at a concentration of 0.5 mM. The hydrogels have a volume of 0.5 ml and are made in 10 ml scintillation vials. After the hydrogels form, the vials are filled with PBS buffer, pH 7.4, and then imaged in either a 9.4 Tesla MRI machine or a 17.8 Tesla MRI machine (University of Florida). The best TR/TE parameters are selected from calculations using the spin-echo signal equation with respect to the relaxation times and the TR/TE. The TE and TR are chosen such that the signal intensity of the hydrogels loaded with 19b and 25 is lower than or equal to pure agarose hydrogels. These calculations are based on the R1 and R2 of 19b and 25. DTT is added to the scintillation vials to generate a 50 mM concentration of DTT in the vials. The control hydrogels for this experiment consist of hydrogels that contain 50 mM DTT, without 19b or 25. The signal intensity of the gels is measured every hour for 48 hours. The T1 and the T2 of the gels is measured every hour, the T1 is measured using an inversion recovery sequence, for which the sequence parameters will be selected based on the values of R1 and R2 of 19b and 25. The T2 will be measured using a Carr-Purcell-Meiboom-Gill (CPMG) sequence with TEs chosen from the values of R2 for 19b and 25 (Haacke 1999).

Series [6] in a line: R1 and R2 relaxivity from water T1/T2 measurements by NMR. It counts as physicochemical. The following applies: for R1: deuterium oxide, Unity-600 MHz, 25±0.1° C. The method, then: The R2 and R1 of 19a and 18a were calculated to show cleavage of the T2/T1 quenching detectable construct 19a generated a large enough change in R2 to allow for enzyme detection. The compound 19a represents an intact T2/T1 quenching detectable construct and the compound 18a represents a polymeric gadolinium detectable construct remainder resulting from cleavage of the reaction region. The R1 and R2 of 19a and 18a were measured in deuterium oxide in a Unity-600 MHz (Varian, Inc.) at 25±0.1° C. T1 and T2 measurements of water relaxation times were measured at various concentrations of 19a and 18a, and a plot of 1/T1 and 1/T2 was made against the concentration; the relaxivities R1 and R2 were determined by the slope of this graph using equation 1 (Caravan 1991), [formula] where 1/T1 is the relaxation rate of the water proton induced by the paramagnetic and diamagnetic species present in solution, and 1/T1 (diamagnetic) is the relaxation rate in the absence of the paramagnetic species. R1 and R2 of 18a were calculated to be 3.34 mM^−1s^− and 6.8 mM^−1s^−1 and the R1 and R2 of 19a were 4.0 mM^−1s^−1 and 21.77 mM^−1s^−1 (see FIG. 19).

The nature of series [7]: Diffusion coefficient in water (literature). Type of series: physicochemical. The text has this:
Another example of a detectable construct of the present invention is shown in FIG. 15, wherein the detectable construct comprises a first detectable agent, comprising a metal ion and a chelator, covalently bonded to a linking region comprising PEG(polyethylene glycol) MW 80 kD, which is covalently bonded to a reaction region that is a substrate that can be cleaved by an enzyme or chemical process, which is covalently bonded to a second detectable agent comprising a chelator and a metal ion. In this particular example, the first detectable agent is Gadolinium associated with the chelator DTPA, and the second detectable agent is Dysprosium associated with the chelator DTPA. This detectable construct can be used in a method based upon the counteracting effects of T1 and T2 contrast agents on MRI signal intensity. Gadolinium is the T1 contrast agent and dysprosium is the T2 contrast agent. The dysprosium detectable agent is connected to the PEG chain through a cleavable linkage, such as a disulfide bond or an enzyme cleavable peptide linkage. Cleavage of 3a generates a low molecular weight dysprosium detectable construct remainder (4) and a high molecular weight PEG gadolinium detectable construct remainder. […]
At present, tumors can only be detected after they reach mm-cm dimensions. […]

The conditions of series [8]: in water, cited from earlier work.
The target of a further series is MMP-9 (Homo sapiens, UniProt P14780). Put plainly: Imaging MMP-9 with 40 and 42 in agarose gels (MRI). It counts as biochemical. The following applies: agarose hydrogels.
Series [9] concerns MMP-7 expressing SW480mat xenograft tumors. The series is described as follows: In vivo imaging of MMP-7 activity in mouse xenograft tumors (MRI). Also noted: species or system athymic nude mice. The conditions noted are these: expectation; mice with MMP-7 expressing tumors, 9.4 Tesla. The text has this: MMP-7 activity is imaged in athymic nude mice which have been given MMP-7 expressing xenograft tumors, using the T2/T1 quenching detectable construct, gadolinium-PEG-RPLALWRSC-dysprosium (46, FIG. 26). This compound contains a reaction region that is the MMP-7 cleavage site, RPLALWRSC, (SEQ ID NO: 2). […] See FIG. 26 for the synthesis of 46.
The resulting tumors are allowed to grow up to a size of 1-2 cm (4-6 weeks). During this period, the mice are imaged at various times points ranging from 3 days to 6 weeks after the injection of the tumor cells, according to the following procedure: after proper anesthetization, a catheter is inserted into the tail vein of the mice, a composition comprising the detectable construct 46 is injected through the catheter and the mice are imaged every hour for 24 hours in a 9.4 Tesla MRI machine (Emory University), measuring the MRI signal intensity, tissue T1 and tissue T2.
The signal intensity and T2 of the MMP-7 expressing tumors is compared against the control tumors. If the signal intensity of the MMP-7 expressing tumors is greater than the controls, then MMP-7 successfully cleaved 46, resulting in an increase in MRJ signal intensity and the imaging of MMP-7. Furthermore, data is obtained relating to the sensitivity of the method to image early tumor activity, as well as ratiometric information relating to tumor growth.

Setting [10] is: listed as DTPA-Dy detectable construct remainder.

Read-outs that look alike come from different tables or passages of the source.

MMP-9, sequence (P14780 94-707, species assumed): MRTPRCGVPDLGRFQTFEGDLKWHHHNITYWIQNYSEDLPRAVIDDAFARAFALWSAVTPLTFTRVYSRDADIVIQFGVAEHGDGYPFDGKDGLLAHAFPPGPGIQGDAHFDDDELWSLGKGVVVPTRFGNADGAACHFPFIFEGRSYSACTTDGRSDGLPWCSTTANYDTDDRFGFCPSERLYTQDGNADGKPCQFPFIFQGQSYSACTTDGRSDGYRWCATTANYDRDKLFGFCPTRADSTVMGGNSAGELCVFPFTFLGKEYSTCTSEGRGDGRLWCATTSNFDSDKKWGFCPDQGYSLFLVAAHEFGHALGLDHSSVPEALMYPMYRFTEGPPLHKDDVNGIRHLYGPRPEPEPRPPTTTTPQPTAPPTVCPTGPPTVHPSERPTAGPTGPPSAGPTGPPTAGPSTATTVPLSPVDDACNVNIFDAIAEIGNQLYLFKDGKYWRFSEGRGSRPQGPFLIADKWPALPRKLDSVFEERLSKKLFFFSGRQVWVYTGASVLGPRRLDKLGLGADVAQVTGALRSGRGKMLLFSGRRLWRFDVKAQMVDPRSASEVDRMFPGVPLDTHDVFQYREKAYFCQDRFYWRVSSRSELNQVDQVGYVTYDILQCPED

Consider trypsin, for which the “water T2 (400 MHz NMR in D2O), construct 16 mg/ml, trypsin 0.025 mg/ml” value in series [1] is reported as “After adding trypsin, T2 increases by 52.3%”.

On to MMP-7, for which, in [2], the “T2 signal (NMR in D2O buffer, 37 C, 4.5 hours)” value is listed as “upon treatment of micelles with MMP-7 that the T2 signal increase by over two-fold”.

For the substance “Gadolinium-Poly(Methacrylic Acid)-PEG-S—S-Dysprosium [Compound 33]”, the “MRI signal intensity of agarose gels after addition of DTT” value (“MRI signal intensity of agarose gels” for short) in [3] is reported as “increases the signal intensity”.

For “Gadolinium-PEG-S—S-Dysprosium-Diamide [Compound 25]”, the “water exchange rate τm, times lower than the dysprosium chelate in 19b” value in [4] turned out to be 34 times. Besides, the “MRI signal intensity of agarose gels” value in [5] is given as “increases the signal intensity”.

On to Thiol-PEG-DTPA-Gd [Compound 18a], for which the R1 in series [6] was 3.34 mM⁻¹ s⁻¹.

In the case of “dysprosium-diethylenetriaminepentaacetic (DTPA) [DTPA-dysprosium]”, the “ratio of diffusion coefficient to that of PEG 80 kD” value is listed as 17 fold in series [7] and “roughly 17 fold” in series [7] (setting [10]). The results for the “diffusion coefficient Dwater” value in [8] and in series [8] (setting [10]) were 3.8×10^−6 cm^2/s and “approximately 3.8×10^−6 cm^2/s”, respectively.

For the substance “gadolinium-poly(methacrylic acid)-Pro-Val-Gly-Leu-Ile-Gly-dysprosium [Compound 42]”, on MMP-9, the “MRI signal intensity on cleavage by MMP-9” value was “increased signal intensity”.

Regarding “Gadolinium-PEG-S—S-Dysprosium [Compound 19b]”, in series [5], the “MRI signal intensity of agarose gels” value was “increases the signal intensity”.

“gadolinium-PEG-Pro-Val-Gly-Leu-Ile-Gly-dysprosium [Compound 40]”: the “MRI signal intensity on cleavage by MMP-9” value on MMP-9 was “increase in signal intensity”.

For “gadolinium-PEG-RPLALWRSC-dysprosium [Compound 46]”, in series [9], the “MRI signal intensity on cleavage by MMP-7” value was “increase in MRI signal intensity”.

In the case of “Gadolinium-PEG-S—S-Dysprosium [Compound 19a]”, the “decrease in R1 between 19a and 18a” value in series [6] (19a versus 18a) came out at 16.5%. In series [6], this substance had an R1 of 4.0 mM⁻¹ s⁻¹.
